Data from ChEMBL document CHEMBL1201862, “PubChem BioAssay data set” (2004).
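Protocol summary: plate cells (96-well), add compound at 5 concentrations, incubate 48 h, interpolate endpoints linearly. Here, GI50 denotes the concentration required for 50% inhibition of growth.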 The source made the active and inactive calls. Rule as the data show it: active = GI50 up to about 1.1 µM and inactive = higher.

How the values were obtained:
Assay in all cases: NCI anticancer screen, dose series, 48 h
786-0 = system: 786-0
CAKI-1 = system: CAKI-1
COLO 205 = system: COLO 205
DU-145 = system: DU-145
HCC 2998 = system: HCC 2998
HOP-92 = system: HOP-92
Hs-578T = system: Hs-578T
K562 = system: K562
KM12 = system: KM12
MOLT-4 = system: MOLT-4
NCI-H23 = system: NCI-H23
NCI-H460 = system: NCI-H460
OVCAR-5 = system: OVCAR-5
RPMI-8226 = system: RPMI-8226
RXF 393 = system: RXF 393
SF-539 = system: SF-539
SK-MEL-2 = system: SK-MEL-2
SK-MEL-5 = system: SK-MEL-5
SK-OV-3 = system: SK-OV-3
TK-10 = system: TK-10

Measured: GI50

N#Cc1c(N2CCCC2)ncn(-c2ccccc2)c1=O
inactive: 786-0 > 100 µM | CAKI-1 > 100 µM | COLO 205 > 100 µM | DU-145 > 100 µM | HCC 2998 > 100 µM | HOP-92 > 100 µM | Hs-578T > 100 µM | K562 > 100 µM | KM12 > 100 µM | MOLT-4 > 100 µM | NCI-H23 > 100 µM | NCI-H460 > 100 µM | OVCAR-5 > 100 µM | RPMI-8226 > 100 µM | RXF 393 > 100 µM | SF-539 > 100 µM | SK-MEL-2 > 100 µM | SK-MEL-5 > 100 µM | SK-OV-3 > 100 µM | TK-10 > 100 µM

C=C(C)[C@@H]1CC[C@]2(C(=O)O)CC[C@]3(C)[C@H](CC[C@@H]4[C@@]5(C)CC(=O)C(C)(C)[C@@H]5CC[C@]43C)[C@@H]12
inactive: 786-0 7 µM | CAKI-1 12.2 µM | COLO 205 4.68 µM | DU-145 12.5 µM | HCC 2998 5.9 µM | HOP-92 11.1 µM | Hs-578T 9.48 µM | K562 6.38 µM | KM12 8.77 µM | MOLT-4 4.98 µM | NCI-H23 10.9 µM | NCI-H460 4.95 µM | OVCAR-5 11 µM | RPMI-8226 4.48 µM | RXF 393 7.87 µM | SF-539 6.08 µM | SK-MEL-2 4.52 µM | SK-MEL-5 5.7 µM | SK-OV-3 10 µM | TK-10 11 µM
